Reference: patent publication US20230072421A1, “TARGETED RADIOPHARMACEUTICALS FOR THE DIAGNOSIS AND TREATMENT OF PROSTATE CANCER” (Bayer AS, priority 2019, published 2023)

Experiments:
[1] = biological target: T1, PSMA-expressing LNCaP cells (Homo sapiens, UniProt Q04609); assay: Binding competition assay against 3H-PSMA-617 on LNCaP cells; settings: for remaining activity at 0.01 µM / remaining activity at 0.1 µM / % remaining 3H-PSMA-617 @ 10 nM (mean) / % remaining 3H-PSMA-617 @ 100 nM (mean): LNCaP cells, 10 nM 3H-PSMA-617, 2 h at 37° C., triplicates; for remaining activity at 0.01 µM / % remaining 3H-PSMA-617 @ 10 nM (mean): competing non-radiolabeled compound 10 nM; for remaining activity at 0.1 µM / % remaining 3H-PSMA-617 @ 100 nM (mean): competing non-radiolabeled compound 100 nM; for competition against 3H-PSMA-617 on PSMA-expressing LNCaP cells (in words): comparison between examples
T1 construct: PSMA-expressing LNCaP cells; endogenous in cells; host or cells: LNCaP
T1 sequence (Q04609 whole entry): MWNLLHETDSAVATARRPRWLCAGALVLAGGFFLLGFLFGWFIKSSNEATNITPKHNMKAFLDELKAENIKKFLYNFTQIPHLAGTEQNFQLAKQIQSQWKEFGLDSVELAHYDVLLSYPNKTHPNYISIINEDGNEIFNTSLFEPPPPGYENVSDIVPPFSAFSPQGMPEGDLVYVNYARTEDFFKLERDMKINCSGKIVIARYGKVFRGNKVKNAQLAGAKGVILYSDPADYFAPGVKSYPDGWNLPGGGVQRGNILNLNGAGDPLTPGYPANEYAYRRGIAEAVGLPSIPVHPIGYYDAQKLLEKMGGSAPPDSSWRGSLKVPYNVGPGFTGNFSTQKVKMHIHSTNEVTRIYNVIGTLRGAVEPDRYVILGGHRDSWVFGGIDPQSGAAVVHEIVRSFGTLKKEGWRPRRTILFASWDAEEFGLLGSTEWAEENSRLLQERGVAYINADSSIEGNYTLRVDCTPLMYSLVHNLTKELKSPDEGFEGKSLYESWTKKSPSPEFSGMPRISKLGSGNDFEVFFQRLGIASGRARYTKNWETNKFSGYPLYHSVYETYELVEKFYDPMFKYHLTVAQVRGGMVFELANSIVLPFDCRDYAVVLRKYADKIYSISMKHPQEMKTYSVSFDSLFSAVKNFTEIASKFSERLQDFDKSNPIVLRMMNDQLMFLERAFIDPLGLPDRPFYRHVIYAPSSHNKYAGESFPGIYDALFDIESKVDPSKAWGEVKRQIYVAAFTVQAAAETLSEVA
Method in brief: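 Compounds added to LNCaP cells in growth medium, 2 h at 37 °C, 5% CO2. After two ice-cold PBS washes, cells lysed in 0.3 M NaOH and bound radioactivity measured by liquid scintillation counting.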

[2] = system: VCap, C4-2, 22Rv1 and LnCap cells; assay: Cell proliferation assay, summary statements over several cell lines; assay type: cell-based; settings: 227Th-labelled compounds bearing the HOPO chelator Example A
Experimental: Inhibition of cell proliferation of Thorium-227 labeled PMSA SMOL ligands was tested different prostate cancer cell lines, namely 22Rv1, VCaP, C4-2 (all from ATCC, Manassas, Va., USA) and LNCaP (DMSZ, Braunschweig). Cells were seeded using the following conditions in 384 well plates (Corning) in 30 μl of growth media at 4000 cells/well for VCaP cells and 1000 cells/well for 22Rv1, C4-2 and LNCaP cells.
Cells were cultivated an incubator at 37° C. and 5% C02 over night. […] In sister plates cell viability at treatment start (d=0) was determined using CellTiter-Glo® assay (CTG, Promega, Madison, Wis., USA), by adding 30 μl per well CTG solution, incubation for 10 min and reading of Luminescence in a PheraStarFSX instrument (BMG Labtech). After a 5-day exposure in the presenced of test compounds, cell viability of treated or untreated control cells was determined again using CellTiter-Glo® assay (Promega, Madison, Wis., USA). […] The DRC software is a Biobook Spreadsheet that was developed by Bayer AG and Bayer Business Services on the IDBS E-Workbook Suite platform (IDBS: ID Business Solutions Ltd., Guildford, UK).

[3] = system: LNCaP human prostate cancer cells; assay: LNCaP xenograft efficacy study (T/C tumor area); assay type: in vivo, SCID mice; settings: Example III; day 64 after start of therapy; single treatment 1.5 MBq/kg
Method in brief: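 SCID mice with testosterone pellet bearing s.c. flank LNCaP xenografts (5×10^6 cells in Matrigel) were treated i.v. with a defined radioactive dose once tumors reached 35-50 mm^2 (n=10/group). Tumor area (caliper, longest diameter × perpendicular) measured 2-3× weekly; T/C ratio calculated from tumor areas when vehicle group closed.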

Compound	remaining activity at 0.01 µM [1] [%]	remaining activity at 0.1 µM [1] [%]	competition against 3H-PSMA-617 on PSMA-expressing LNCaP cells (in words) [1]	antiproliferative activity on VCap, C4-2, 22Rv1 and LnCap cells (in words) [2]	T/Carea [3]	% remaining 3H-PSMA-617 @ 10 nM (mean) [1] [%]	% remaining 3H-PSMA-617 @ 100 nM (mean) [1] [%]
Cc1cc(C(=O)NCCN(CCCN(CCNC(=O)c2cc(C)n(CC(=O)NC[C@H]3CC[C@H](C(=O)N[C@@H](Cc4ccc5ccccc5c4)C(=O)NCCCC[C@H](NC(=O)N[C@@H](CCC(=O)O)C(=O)O)C(=O)O)CC3)c(=O)c2O)CCNC(=O)c2cc(C)n(CC(=O)NC[C@H]3CC[C@H](C(=O)N[C@@H](Cc4ccc5ccccc5c4)C(=O)NCCCC[C@H](NC(=O)N[C@@H](CCC(=O)O)C(=O)O)C(=O)O)CC3)c(=O)c2O)CCNC(=O)c2cc(C)n(CC(=O)NC[C@H]3CC[C@H](C(=O)N[C@@H](Cc4ccc5ccccc5c4)C(=O)NCCCC[C@H](NC(=O)N[C@@H](CCC(=O)O)C(=O)O)C(=O)O)CC3)c(=O)c2O)c(O)c(=O)n1CC(=O)NC[C@H]1CC[C@H](C(=O)N[C@@H](Cc2ccc3ccccc3c2)C(=O)NCCCC[C@H](NC(=O)N[C@@H](CCC(=O)O)C(=O)O)C(=O)O)CC1 [1-C tetramer]	59	7	improved competition	high antiproliferative activity	0.36	–	–
Cc1cc(C(=O)NCCN(CCCN(CCNC(=O)c2cc(C)n(CC(=O)O)c(=O)c2O)CCNC(=O)c2cc(C)n(CC(=O)NC[C@H]3CC[C@H](C(=O)N[C@@H](Cc4ccc5ccccc5c4)C(=O)NCCCC[C@H](NC(=O)N[C@@H](CCC(=O)O)C(=O)O)C(=O)O)CC3)c(=O)c2O)CCNC(=O)c2cc(C)n(CC(=O)NC[C@H]3CC[C@H](C(=O)N[C@@H](Cc4ccc5ccccc5c4)C(=O)NCCCC[C@H](NC(=O)N[C@@H](CCC(=O)O)C(=O)O)C(=O)O)CC3)c(=O)c2O)c(O)c(=O)n1CC(=O)O [1-C dimer, (3S,10S,14S,3'S,10'S,14'S)-1,1′-(propane-1,3-diylbis{[(2-{[1-(carboxymethyl)-3-hydroxy-6-methyl-2-oxo-1,2-dihydropyridine-4-carbonyl]amino}ethyl)azanediyl]ethane-2,1-diylcarbamoyl(3-hydroxy-6-methyl-2-oxopyridine-4,1(2H)-diyl)(1-oxoethane-2,1-diyl)azanediylmethylene(1r,4S)cyclohexane-4,1-diyl})bis{3-[(naphthalen-2-yl)methyl]-1,4,12-trioxo-2,5,11,13-tetraazahexadecane-10,14,16-tricarboxylic acid}]	–	–	improved competition	high antiproliferative activity	–	39	5
Cc1cc(C(=O)NCCN(CCCN(CCNC(=O)c2cc(C)n(CC(=O)O)c(=O)c2O)CCNC(=O)c2cc(C)n(CC(=O)NC[C@H]3CC[C@H](C(=O)N[C@@H](Cc4ccc5ccccc5c4)C(=O)NCCCC[C@H](NC(=O)N[C@@H](CCC(=O)O)C(=O)O)C(=O)O)CC3)c(=O)c2O)CCNC(=O)c2cc(C)n(CC(=O)O)c(=O)c2O)c(O)c(=O)n1CC(=O)O [Example 1-C Monomer]	32	5	improved competition	high antiproliferative activity	–	–	–
Cc1cc(C(=O)NCCN(CCCN(CCNC(=O)c2cc(C)n(CC(=O)NC[C@H]3CC[C@H](C(=O)N[C@@H](Cc4cnc5ccccc5c4)C(=O)NCCCC[C@H](NC(=O)N[C@@H](CCC(=O)O)C(=O)O)C(=O)O)CC3)c(=O)c2O)CCNC(=O)c2cc(C)n(CC(=O)NC[C@H]3CC[C@H](C(=O)N[C@@H](Cc4cnc5ccccc5c4)C(=O)NCCCC[C@H](NC(=O)N[C@@H](CCC(=O)O)C(=O)O)C(=O)O)CC3)c(=O)c2O)CCNC(=O)c2cc(C)n(CC(=O)NC[C@H]3CC[C@H](C(=O)N[C@@H](Cc4cnc5ccccc5c4)C(=O)NCCCC[C@H](NC(=O)N[C@@H](CCC(=O)O)C(=O)O)C(=O)O)CC3)c(=O)c2O)c(O)c(=O)n1CC(=O)O [Example 22-C trimer]	–	–	–	high antiproliferative activity	–	33	5
